Key:
[1] = PK parameters in male ICR mice; assay type: in vivo
Procedure: (§1) The pharmacokinetics (PK) of representative Compounds of the Disclosure were evaluated in mice or rats to provide an assessment of their oral bioavaibility. All animal experiments were performed under the guidelines of the University of Michigan Committee for Use and Care of Animals and using an approved animal protocol.

[2] = PK parameters in male SD rats; assay type: in vivo; details: for AUC(0-t) / clearance / Vd / Cmax / half-life: rat, in vivo; for clearance: read-out: Cl-obs; for Vd: read-out: Vss
Procedure: as §1

[3] = test system: AR protein; test: Western blotting of AR protein degradation in MDA-MB-453 cells; assay type: cell-based; set-up: key: A: >90% degradation (24 hr treatment); B: >50% degradation but <90% (24 hr treatment); C: >10% degradation but <50% (24 hr treatment); D: No significant degradation (24 hr treatment); details: 24 hr treatment
Procedure: The appropriate cell line, e.g., prostate cancer LNCaP, Vcap, or MDA-MB-453 cell line, was treated with Compounds of the Disclosure. The treated cells were lysed with RIPA buffer. The AR level in the cell lysates was examined by western blotting and a specific AR antibody (ab194196, Abcam, Cambridge, Mass. 02139) with concentration of 1:20,000. GAPDH was used as a loading control.
Bands were quantified with ImageJ software. The relative numbers of each band obtained from normalization with its corresponding GAPDH level were compared with Prism 8 software. The DC50 values were produced from Prism 8, and the DC90 values were calculated with an equation=Bottom+(Top−Bottom)/(1+10^((Log EC50−X)*HillSlope) based on DC50 and Hillslope values.
The amount of AR protein degradation in LNCaP, VCap, and MDA-MB-453 cells caused representative Compounds of the Disclosure at the concentrations indicated is presented in Table 4 and Table 5.

Row | Structure (SMILES) | AUC(0-t) ([1]; IV 2 mg/kg) [ng·h/mL] | Cl-obs ([1]; IV 2 mg/kg) [mL/min/kg] | Vss ([1]; IV 2 mg/kg) [L/kg] | AUC(0-t) ([1]; PO 5 mg/kg) [ng·h/mL] | Cmax ([1]; PO 5 mg/kg) [ng/mL] | F ([1]; PO 5 mg/kg) [%] | T1/2 ([1]; PO 5 mg/kg) [h] | F ([2]; PO 5 mg/kg) [%] | AUC(0-t) ([2]; IV 2 mg/kg) [ng·h/mL] | clearance ([2]; IV 2 mg/kg) [mL/min/kg] | Vd ([2]; IV 2 mg/kg) [L/kg] | AUC(0-t) ([2]; PO 5 mg/kg) [ng·h/mL] | Cmax ([2]; PO 5 mg/kg) [ng/mL] | half-life ([2]; PO 5 mg/kg) [h] | AR protein degradation MDA-MB-453 10 nM [3] | AR protein degradation MDA-MB-453 100 nM [3] | other results
1 | CC1(C)[C@H](NC(=O)c2ccc(N3CCN(CC4CCN(c5ccc6c(c5)C(=O)N(C5CCC(=O)NC5=O)C6=O)CC4)CC3)cc2)C(C)(C)[C@H]1Oc1ccc(C#N)c(Cl)c1 (stereo partly shown) [Cpd. No. 46, N-((1r,3r)-3-(3-chloro-4-cyanophenoxy)-2,2,4,4-tetramethylcyclobutyl)-4-(4-((1-(2-(2,6-dioxopiperidin-3-yl)-1,3-dioxoisoindolin-5-yl)piperidin-4-yl)methyl)piperazin-1-yl)benzamide] | 13298.5 | 1.2 | 2.7 | 22360.5 | 1304.3 | 67.3 | 18.8 |  |  |  |  |  |  |  |  |  | 
2 | CC1(C)[C@H](NC(=O)c2ccc(N3CCN(CC4CN(c5ccc6c(c5)C(=O)N(C5CCC(=O)NC5=O)C6=O)C4)CC3)cc2)C(C)(C)[C@H]1Oc1ccc(C#N)c(Cl)c1 (stereo partly shown) [Cpd. No. 112, N-((1r,3r)-3-(3-chloro-4-cyanophenoxy)-2,2,4,4-tetramethylcyclobutyl)-4-(4-((1-(2-(2,6-dioxopiperidin-3-yl)-1,3-dioxoisoindolin-5-yl)azetidin-3-yl)methyl)piperazin-1-yl)benzamide] | 11034.8 | 1.9 | 2.7 | 20599.8 | 1389.4 | 74.7 | 12.0 |  |  |  |  |  |  |  |  |  | 
3 | CC1(C)[C@H](NC(=O)c2ccc(N3CCN(C4CN(c5ccc6c(c5)C(=O)N(C5CCC(=O)NC5=O)C6=O)C4)CC3)cc2)C(C)(C)[C@H]1Oc1ccc(C#N)c(Cl)c1 (stereo partly shown) [Cpd. No. 113, N-((1r,3r)-3-(3-chloro-4-cyanophenoxy)-2,2,4,4-tetramethylcyclobutyl)-4-(4-(1-(2-(2,6-dioxopiperidin-3-yl)-1,3-dioxoisoindolin-5-yl)azetidin-3-yl)piperazin-1-yl)benzamide] |  |  |  |  |  | 62.2 |  | 25.0 | 9140 | 3.1 | 2 | 5720 | 414 | 10.4 |  |  | AUC(0-t) ([1]; mouse, in vivo, IV 2 mg/kg, read-out: AUC0-t): 14600 ng·h/mL; clearance ([1]; mouse, in vivo, IV 2 mg/kg, read-out: Cl-obs): 1.7 mL/min/kg; Vd ([1]; mouse, in vivo, IV 2 mg/kg, read-out: Vss): 1.7 L/kg; half-life ([1]; mouse, in vivo, PO 5 mg/kg): 10.3 h; AUC(0-t) ([1]; mouse, in vivo, PO 5 mg/kg, read-out: AUC0-t): 22700 ng·h/mL; Cmax ([1]; mouse, in vivo, PO 5 mg/kg, read-out: Cmax): 1820 ng/mL
4 | CC1(C)[C@H](NC(=O)c2ccc(N3CCN(C4CCN(c5ccc6c(c5)C(=O)N(C5CCC(=O)NC5=O)C6=O)CC4)CC3)cc2)C(C)(C)[C@H]1Oc1ccc(C#N)c(Cl)c1 (stereo partly shown) [Cpd. No. 114, N-((1r,3r)-3-(3-chloro-4-cyanophenoxy)-2,2,4,4-tetramethylcyclobutyl)-4-(4-(1-(2-(2,6-dioxopiperidin-3-yl)-1,3-dioxoisoindolin-5-yl)piperidin-4-yl)piperazin-1-yl)benzamide] | 15758.8 | 1.7 | 1.5 | 14587.7 | 980.1 | 37.0 | 11.2 | 11.4 | 1190 | 7.7 | 2.5 | 4160 | 100 | 8.9 |  |  | 
5 | N#Cc1ccc(OC2CCC(Oc3ccc(C#CC4CCN(CC5CCN(c6ccc7c(c6)C(=O)N(C6CCC(=O)NC6=O)C7=O)CC5)CC4)cc3)CC2)cc1Cl (stereo not shown) [compound 51] |  |  |  |  |  |  |  |  |  |  |  |  |  |  | D | D | 
6 | N#Cc1ccc(O[C@H]2CC[C@H](Oc3ccc(C4CCN(CC5CCN(c6ccc7c(c6)C(=O)N(C6CCC(=O)NC6=O)C7=O)CC5)CC4)cc3)CC2)cc1Cl (stereo partly shown) [compound 52] |  |  |  |  |  |  |  |  |  |  |  |  |  |  | D | D | 

Reference: patent US20230233690A1, “ANDROGEN RECEPTOR PROTEIN DEGRADERS” (THE REGENTS OF THE UNIVERSITY OF MICHIGAN, priority 2020, published 2023)
